The text below walks through data of patent publication US10344026B2, “Compositions and methods of targeting mutant K-ras” (NANTBIO, INC., priority 2017, dated 2019).

SMILES strings stand for the structures.

Assay type in all cases: cell-based
For one assay, the system named is HCT116-G31D. The assay can be described thus: Viability assay (CellTiterBlue, 72 hr) HCT116. To be noted: Homo sapiens, HCT-116, GI50, CellTiterBlue, HCT116 K-Ras G13D, read-out: 72 hr Cell Viability HCT116 (G13D). A digest of the protocol: (§1)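 Cells were seeded at 1000 per well and allowed 18 hr at 37 °C in CO2 before compound addition (final DMSO 0.5%). After 72 hr exposure, CellTiterBlue was added for 3 hr and fluorescence read at Ex550/Em590. GI50 values were calculated against DMSO (100%) and 100 uM tamoxifen (0%) controls.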

In assay [1] the test system is phospho-ERK in Panc1 (G12D). As to the kind of experiment: In-Cell Western phospho-ERK, Panc1. To be noted: Homo sapiens, PANC-1, 1 h; Panc1, one hour treatment; read-out: In-Cell Western Panc1 (G12D) Erk (P). A digest of the protocol: (§2)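 Read-out: imaged cellular fluorescence after phospho-ERK/phospho-Akt immunostaining; EC50 derived. Cells plated 3000/well, 18 hr 37° C, compound 1 hr, 0.5% DMSO. Full-inhibition controls: 1 uM BEZ235 (pAkt), 1 uM MEK Inhibitor II (pERK).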

The test system of assay [2] is phospho-ERK in A375 (Wild-type). As to the kind of experiment: In-Cell Western phospho-ERK, A375. To be noted: Homo sapiens, A-375, 1 h; A375, one hour treatment; read-out: In-Cell Western A375 (Wild-type) Erk (P). How it is done:
(§3) In-cell phosphorylation assays for Erk and Akt were performed on several of the compounds and exemplary results are shown in Table 3 below using HCC827 and A375 cell lines for wild type K-Ras and Panc1 and Panc10.05 cell lines for G12D K-Ras mutants. Results are expressed in μM and corresponding structures are shown in FIGS. 2A-2G and Examples 1-152, above.
(§4) Cells are seeded in complete medium into black sided, clear-bottom 384-well microplates at 3000 cells/[…]/well. Plates are returned to 37° C. CO2 incubator for 18 hr. Drug is made as 200× in DMSO and diluted into medium to 10×. To each well is added 4 ul 10× test article or controls, and plates are returned to the incubator. Final assay DMSO concentration is 0.5%. After one hour, cells are fixed in formaldehyde, rinsed & permeabilized with triton X-100, and blocked with BSA/Goat serum blocking solution. Primary phospho-Akt and phospho-ERK antibodies are added and plates are incubated overnight at 4° C. Plates are rinsed with Tween-20 wash buffer and secondary antibody (Goat anti-rabbit, Thermofisher) is added. After 2 hours, plates are rinsed in Tween-20 wash buffer, and then PBS. Plates are imaged on the Celigo (Nexcelom) and cellular fluorescence is quantitated. Full inhibition of phospho-Akt is achieved with 1 uM BEZ235 (Sellekchem), while full inhibition of phospho-ERK is achieved with 1 uM MEK Inhibitor II Calbiochem). EC50 values are calculated using Graphpad Prism.

Assay [3] relates to U87-MG (K-Ras wild type cell line). The assay can be described thus: Viability assay (CellTiterBlue, 72 hr) U87-MG. To be noted: Homo sapiens, U-87 MG, GI50, CellTiterBlue, U87-MG K-Ras wild-type. Summed up:
as §1

Assay [4] concerns phospho-Akt in A375 (Wild-type). The assay can be described thus: In-Cell Western phospho-Akt, A375. To be noted: Homo sapiens, A-375, 1 h; A375, one hour treatment; read-out: In-Cell Western A375 (Wild-type) Akt (P). How it is done: as §3, §4
The test system of assay [5] is phospho-Akt in Panc1 (G12D). As to the kind of experiment: In-Cell Western phospho-Akt, Panc1. The conditions noted are these: Homo sapiens, PANC-1, 1 h; Panc1, one hour treatment; read-out: In-Cell Western Panc1 (G12D) Akt (P). A digest of the protocol: as §2
In a further assay the test system is Panc10.05-G12D. The assay can be described thus: Viability assay (CellTiterBlue, 72 hr) Panc10.05. To be noted: Homo sapiens, Panc1005, GI50, CellTiterBlue, Panc10.05 K-Ras G12D, read-out: 72 hr Cell Viability Panc10.05 (G12D). Summed up:
as §1
On the technique in general: Alamar Blue is a resazurin reagent that responds to reducing activity.

In assay [6] the test system is phospho-ERK in Panc10.05 (G12D). The assay can be described thus: In-Cell Western phospho-ERK, Panc10.05. The conditions noted are these: Homo sapiens, Panc1005, 1 h; Panc10.05, one hour treatment; read-out: In-Cell Western Panc10.05 (G12D) Erk (P). Summed up: as §2
A further assay has as its system Panc1-G12D. As to the kind of experiment: Viability assay (CellTiterBlue, 72 hr) Panc1. To be noted: Homo sapiens, PANC-1, GI50, CellTiterBlue, Panc1 K-Ras G12D, read-out: 72 hr Cell Viability Panc1 (G12D). Summed up: as §1
Assay [7] deals with Ishikawa (K-Ras wild type cell line). As to the kind of experiment: Viability assay (CellTiterBlue, 72 hr) Ishikawa. The conditions noted are these: Homo sapiens, GI50, CellTiterBlue, Ishikawa K-Ras wild-type. Summed up:
as §1

In assay [8] the test system is phospho-ERK in HCC827 (Wild-type). The assay can be described thus: In-Cell Western phospho-ERK, HCC827. The conditions noted are these: Homo sapiens, 1 h; HCC827, one hour treatment; read-out: In-Cell Western HCC827 (Wild-type) Erk (P). How it is done: as §3, §4
The subject of assay [9] is A375 (K-Ras wild type cell line). As to the kind of experiment: Viability assay (CellTiterBlue, 72 hr) A375. The conditions noted are these: Homo sapiens, A-375, GI50, CellTiterBlue. How it is done:
Viability assays were performed on exemplary compounds and Table 2 below lists exemplary results for selected compounds tested on K-Ras wild type cell lines (Ishikawa, U87-MG, HCC827, and A375) and various K-Ras mutant cell lines (Panc1-G12D; Panc10.05-G12D; HCT116-G31D). Results are expressed in μM and corresponding structures are shown in FIGS. 2A-2G and Examples 1-152, above.
Cells are counted and seeded at 1000 cells/36 ul medium/well into 384-well microplates. Cells are returned to 37° C. CO2 incubator for 18 hr. Drug is made as 200× in DMSO and diluted into medium to 10×. To each well is added 4 ul 10× drug, and plates are returned to the incubator. Final assay DMSO concentration is 0.5%. After 72 hr, 8 ul CellTiterBlue (Promega) is added to each well. After 3 hr, fluorescence (Ex550/Em590) is determined on the Victor Plate Reader (Perkin Elmer). Assay range is determined by DMSO control (100% viability) and 100 uM tamoxifen (0% viability). GI50 values are calculated using Graphpad Prism.

Assay [10] deals with phospho-Akt in Panc10.05 (G12D). As to the kind of experiment: In-Cell Western phospho-Akt, Panc10.05. The conditions noted are these: Homo sapiens, Panc1005, 1 h; Panc10.05, one hour treatment; read-out: In-Cell Western Panc10.05 (G12D) Akt (P). A digest of the protocol: as §2
Assay [11] has as its system HCC827 (K-Ras wild type cell line). As to the kind of experiment: Viability assay (CellTiterBlue, 72 hr) HCC827. The conditions noted are these: Homo sapiens, GI50, CellTiterBlue, HCC827 K-Ras wild-type. A digest of the protocol: as §1
The target of the next assay is T1, K-Ras G12D (Homo sapiens, UniProt P01116, G12D).
T1 construct: expressed in transfected cells; host or cells: 293H cells
The assay can be described thus: G-LISA Ras activation, 293H cells transfected with G12D mutant. The conditions noted are these: compound 1 hour. Summed up: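 Active Ras was quantified by G-LISA in lysates of 293H cells transiently expressing wild-type or mutant Ras. Compounds (3.125-25 μM) were applied for 1 hour; only wild-type transfected cells were stimulated with 100 ng/ml EGF for 2 minutes.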

The target in a further assay is T2, wild type K-Ras (Homo sapiens, UniProt P01116).
T2 construct: expressed in transfected cells; host or cells: 293H cells
As to the kind of experiment: G-LISA Ras activation, 293H cells transfected with Ras wild-type, EGF stimulated. To be noted: compound 1 hour, then 100 ng/ml EGF 2 minutes. How it is done:
293H cells were seeded in 6-wells at 0.6×10^6 cells per well and transfected next day with 5 μg of Ras wild-type, or G12C, G12D or G12V mutant DNA plasmid vector using transfection reagent Lipofectamine 3000. Next day cells were treated with 3.125-25 μM of Ras compounds for 1 hour. Wild-type transfected cells were subsequently treated with 100 ng/ml EGF for 2 minutes. Cells were washed once in ice-cold PBS, lysed in complete lysis buffer on ice, and processed by G-LISA according to Cytoskeleton protocol.

T1 sequence (P01116 whole entry G12D): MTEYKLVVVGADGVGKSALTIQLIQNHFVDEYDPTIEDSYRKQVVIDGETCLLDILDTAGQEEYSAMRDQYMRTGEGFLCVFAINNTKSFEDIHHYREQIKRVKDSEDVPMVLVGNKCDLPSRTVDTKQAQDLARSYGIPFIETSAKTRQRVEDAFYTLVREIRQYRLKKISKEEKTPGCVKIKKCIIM
T2 sequence (P01116 whole entry): as the sequence (P01116 whole entry G12D) above, with D12G counted along it

For the compound `Cc1nc(C)c(C(=O)Nc2nc(-c3ccc4c(c3)CCC(=O)N4Cc3cccnc3C#N)cs2)o1` [Compound 94, N-(4-(1-((2-cyanopyridin-3-yl)methyl)-2-oxo-1,2,3,4-tetrahydroquinolin-6-yl)thiazol-2-yl)-2,4-dimethyloxazole-5-carboxamide], the IC50 (in the assay with HCT116-G31D; in assay [3]; in the assay on Panc10.05-G12D; with Panc1-G12D; in assay [7]; in assay [9]) was > 25 µM throughout. In addition, the IC50 in assay [11] was > 25 µM. Further, the EC50 in assay [1], in assay [2], in assay [4], in assay [5], in assay [6] and in assay [8] was > 25 µM in each case. Besides, in [10], the EC50 was > 25 µM.
As to `Cn1nc(C(F)(F)F)cc1C(=O)Nc1nc(-c2ccc3c(c2)CCC(=O)N3)cs1` [Compound 50, 1-methyl-N-(4-(2-oxo-1,2,3,4-tetrahydroquinolin-6-yl)thiazol-2-yl)-3-(trifluoromethyl)-1H-pyrazole-5-carboxamide], the IC50 (in the assay on HCT116-G31D; in assay [3]; in the assay with Panc10.05-G12D; with Panc1-G12D; in [7]; in [9]) was > 25 µM each time. For the same compound, the IC50 in assay [11] is > 25 µM. Moreover, the EC50 in assay [1] is > 25 µM; in assay [2], > 25 µM; in assay [4], > 25 µM; in assay [5], > 25 µM; in assay [6] it was > 25 µM; in assay [8], 13 µM. In assay [10], the EC50 was > 25 µM.
Regarding `Cn1nccc1C(=O)Nc1nc(-c2ccc3c(c2)CCC(=O)N3)cs1` [Compound 51, 1-methyl-N-(4-(2-oxo-1,2,3,4-tetrahydroquinolin-6-yl)thiazol-2-yl)-1H-pyrazole-5-carboxamide], the IC50 was > 25 µM in the assay with HCT116-G31D; > 25 µM in assay [3]; > 25 µM in the assay on Panc10.05-G12D; > 25 µM in the assay on Panc1-G12D; > 25 µM in assay [7]; 21.5 µM on K-Ras G12D. Besides, the IC50 in assay [9] and in assay [11] was > 25 µM each time. The EC50 in [1] was > 25 µM; in assay [2], > 25 µM; in assay [4], > 25 µM; in assay [5], > 25 µM; in assay [6] it was 25 µM; in [8], > 25 µM.
For the compound `Cn1nc(-c2ccccc2)cc1C(=O)Nc1nc(-c2ccc3c(c2)CCC(=O)N3)cs1` [Compound 48, 1-methyl-N-(4-(2-oxo-1,2,3,4-tetrahydroquinolin-6-yl)thiazol-2-yl)-3-phenyl-1H-pyrazole-5-carboxamide], the IC50 (in the assay with HCT116-G31D; in assay [3]; with Panc10.05-G12D; in the assay on Panc1-G12D; in assay [7]; in assay [9]) was > 25 µM each time. The IC50 in assay [11] is > 25 µM. For the same compound, the EC50 in [1], in assay [2], in [4], in [5], in assay [6] and in assay [8] was > 25 µM each time. In addition, the EC50 in [10] was > 25 µM.
Regarding `Cc1cc(C(=O)Nc2nc(-c3ccc4c(c3)CCC(=O)N4)cs2)n(C)n1` [Compound 22, 1,3-dimethyl-N-(4-(2-oxo-1,2,3,4-tetrahydroquinolin-6-yl)thiazol-2-yl)-1H-pyrazole-5-carboxamide], the IC50 in the assay with HCT116-G31D was > 25 µM; against wild type K-Ras, 12.6 µM; in the assay on Panc10.05-G12D it was 0.734 µM; with Panc1-G12D, 1.3 µM; in assay [7], 4 µM; on K-Ras G12D, 4.6 µM. In assay [11], this compound displayed an IC50 of 22 µM. The EC50 is > 25 µM in assay [1], > 25 µM in [5], > 25 µM in assay [6] and 27 µM in [10].
